Reference: patent publication US20210045385A1, “PYRIDAZINONE-SUBSTITUTED KETOXIMES AS HERBICIDES” (FMC Corporation, priority 2018, published 2021)

Columns and labels:
Assay type in all cases: in vivo
[1] = system: duck salad (Heteranthera limosa); test: Test D flooded paddy test, visual plant response rating; conditions: 250 g ai/ha, scale 0 to 100 (0 no effect, 100 complete control), 13 to 15 d
Procedure, shortened: (§1)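 2-leaf plants, flooded 3 cm, cpd into paddy water; greenhouse 13–15 d; visual rating vs controls, 0 = no effect, 100 = complete control; dash = no result.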

[2] = system: sedge umbrella (small-flower umbrella sedge, Cyperus difformis); test: as above; conditions: 250 g ai/ha, scale 0 to 100 (0 no effect, 100 complete control), 13 to 15 d
Procedure, shortened: as §1

rice (Oryza sativa) = test: as above; conditions: 250 g ai/ha, scale 0 to 100 (0 no effect, 100 complete control), 13 to 15 d
Procedure, shortened: as §1

[3] = system: barnyardgrass (Echinochloa crus-galli); test: as above; conditions: 250 g ai/ha, scale 0 to 100 (0 no effect, 100 complete control), 13 to 15 d
Procedure, shortened: as §1

corn (Zea mays) = test: Test C postemergence, visual plant response rating
Procedure, shortened: (§2)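 Compounds in a non-phytotoxic solvent with surfactant were applied as a directed soil spray preemergence or to 2–10 cm, one- to two-leaf plants postemergence, in loam–sand soil. After about 10 d in a greenhouse, injury was visually rated against untreated controls on a 0–100 scale (100 = complete control).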

kochia (Bassia scoparia) [4] = test: Test C postemergence, visual plant response rating
Procedure, shortened: as §2

[5] = system: Italian ryegrass (Lolium mutiflorum); test: Test C postemergence, visual plant response rating
Procedure, shortened: as §2

[6] = system: wheat (Triticum aestivum); test: Test C postemergence, visual plant response rating
Procedure, shortened: as §2

[7] = system: ragweed (common ragweed, Ambrosia artemisiifolia); test: Test C postemergence, visual plant response rating
Procedure, shortened: as §2

[8] = system: foxtail, giant (giant foxtail, Setaria faberi); test: Test C postemergence, visual plant response rating
Procedure, shortened: as §2

[9] = system: pigweed (Amaranthus retroflexus); test: Test C postemergence, visual plant response rating
Procedure, shortened: as §2

[10] = system: barnyardgrass (Echinochloa crus-galli); test: Test C postemergence, visual plant response rating
Procedure, shortened: as §2

[11] = system: galium (catchweed bedstraw, Galium aparine); test: Test C postemergence, visual plant response rating
Procedure, shortened: as §2

[12] = system: blackgrass (Alopecurus myosuroides); test: Test C postemergence, visual plant response rating
Procedure, shortened: as §2

kochia (Bassia scoparia) [13] = test: Test C preemergence, visual plant response rating
Procedure, shortened: as §2

[14] = system: Italian ryegrass (Lolium mutiflorum); test: Test C preemergence, visual plant response rating
Procedure, shortened: as §2

[15] = system: foxtail, giant (giant foxtail, Setaria faberi); test: Test C preemergence, visual plant response rating
Procedure, shortened: as §2

[16] = system: pigweed (Amaranthus retroflexus); test: Test C preemergence, visual plant response rating
Procedure, shortened: as §2

[17] = system: barnyardgrass (Echinochloa crus-galli); test: Test C preemergence, visual plant response rating
Procedure, shortened: as §2

[18] = Test C, postemergence, 125 g ai/ha
[19] = Test C, 31 g ai/ha, 0 is no effect, 100 is complete control

SMILES	Plant response rating, Ducksalad (Flood) [1]	Plant response rating, Sedge, Umbrella (Flood) [2]	Plant response rating, Rice (Flood) (rice (Oryza sativa))	Plant response rating, Barnyardgrass (Flood) [3]	Corn plant response rating (0 to 100 scale) (corn (Zea mays); Postemergence, 31 g ai/ha)	Corn plant response rating (0 to 100 scale) (corn (Zea mays); [18])	Kochia plant response rating (0 to 100 scale) (kochia (Bassia scoparia) [4]; Postemergence, 31 g ai/ha)	Kochia plant response rating (0 to 100 scale) (kochia (Bassia scoparia) [4]; [18])	Ryegrass, Italian plant response rating (0 to 100 scale) ([5]; Postemergence, 31 g ai/ha)	Ryegrass, Italian plant response rating (0 to 100 scale) [5, 18]	Wheat plant response rating (0 to 100 scale) ([6]; Postemergence, 31 g ai/ha)	Wheat plant response rating (0 to 100 scale) [6, 18]	Ragweed plant response rating (0 to 100 scale) ([7]; Postemergence, 31 g ai/ha)	Ragweed plant response rating (0 to 100 scale) [7, 18]	Foxtail, Giant plant response rating (0 to 100 scale) ([8]; Postemergence, 31 g ai/ha)	Foxtail, Giant plant response rating (0 to 100 scale) [8, 18]	Pigweed plant response rating (0 to 100 scale) ([9]; Postemergence, 31 g ai/ha)	Pigweed plant response rating (0 to 100 scale) [9, 18]	Barnyardgrass plant response rating (0 to 100 scale) ([10]; Postemergence, 31 g ai/ha)	Barnyardgrass plant response rating (0 to 100 scale) [10, 18]	further results
CCO/N=C(\c1cc(Cl)cc(Cl)c1Cl)c1c(O)c(C)nn(C)c1=O [Compound 186]	0	0	0	0	0	20	50	50	80	100	20	70	50	90	60	90	20	90	30	70	Galium plant response rating (0 to 100 scale) ([11]; Postemergence, 31 g ai/ha): 90; Galium plant response rating (0 to 100 scale) [11, 18]: 100; Blackgrass plant response rating (0 to 100 scale) ([12]; Postemergence, 31 g ai/ha): 10; Blackgrass plant response rating (0 to 100 scale) [12, 18]: 20; Kochia plant response rating (0 to 100 scale) (kochia (Bassia scoparia) [13]; 125 g ai/ha): 0; Kochia plant response rating (0 to 100 scale) (kochia (Bassia scoparia) [13]; [19]): 0; Ryegrass, Italian plant response rating (0 to 100 scale) ([14]; 125 g ai/ha): 100; Ryegrass, Italian plant response rating (0 to 100 scale) [14, 19]: 40; Foxtail, Giant plant response rating (0 to 100 scale) ([15]; 125 g ai/ha): 100; Foxtail, Giant plant response rating (0 to 100 scale) [15, 19]: 100; Pigweed plant response rating (0 to 100 scale) ([16]; 125 g ai/ha): 100; Pigweed plant response rating (0 to 100 scale) [16, 19]: 50; Barnyardgrass plant response rating (0 to 100 scale) ([17]; 125 g ai/ha): 90; Barnyardgrass plant response rating (0 to 100 scale) [17, 19]: 40
C#CCO/N=C(\c1cc(Cl)cc(Cl)c1Cl)c1c(O)c(C)nn(C)c1=O [Compound 184]	0	0	0	0	0	10	10	10	0	80	0	0	60	100	60	80	10	20	50	60	Galium plant response rating (0 to 100 scale) ([11]; Postemergence, 31 g ai/ha): 60; Galium plant response rating (0 to 100 scale) [11, 18]: 90; Blackgrass plant response rating (0 to 100 scale) ([12]; Postemergence, 31 g ai/ha): 0; Blackgrass plant response rating (0 to 100 scale) [12, 18]: 0; Kochia plant response rating (0 to 100 scale) (kochia (Bassia scoparia) [13]; 125 g ai/ha): 0; Kochia plant response rating (0 to 100 scale) (kochia (Bassia scoparia) [13]; [19]): 0; Ryegrass, Italian plant response rating (0 to 100 scale) ([14]; 125 g ai/ha): 100; Ryegrass, Italian plant response rating (0 to 100 scale) [14, 19]: 0; Foxtail, Giant plant response rating (0 to 100 scale) ([15]; 125 g ai/ha): 100; Foxtail, Giant plant response rating (0 to 100 scale) [15, 19]: 60; Pigweed plant response rating (0 to 100 scale) ([16]; 125 g ai/ha): 60; Pigweed plant response rating (0 to 100 scale) [16, 19]: 50; Barnyardgrass plant response rating (0 to 100 scale) ([17]; 125 g ai/ha): 90; Barnyardgrass plant response rating (0 to 100 scale) [17, 19]: 0
